According to US8551981B2, “Furo[3,2-d]pyrimidine compounds” (AbbVie Inc., priority 2010, dated 2013):

Tested on: Fcγ receptor signaling
Assay: Reverse Passive Arthus model
Assay type: in vivo
Conditions: Rattus norvegicus, single dose 10 mg/kg
Procedure: Acute in vivo measurement of Fcγ receptor signaling inhibition of the compounds is measured using the:
Reverse Passive Arthus Model
On day 0 OVA was made up at a concentration of 17 mg/mL, in PBS by rocking gently until a solution was formed. 2% Evans Blue solution (Sigma Aldrich, cat# E2129) was then added to double the volume for a final concentration of 8.5 mg/mL of OVA and 1% Evans Blue dye. Anti-OVA antibody (Abazyme), stock concentration 10 mg/mL, was thawed and a 4 mg/mL solution was made with PBS. Compounds were made up in 0.5% HPMC with 0.02% Tween 80, and vortexed for about 15 seconds followed by homogenization for a minimum of about 2 min at 28,000 RPM until there was a fine particulate suspension with no clumps of compound. Rats were weighed and dosed with compound at a pre-determined time based on compound Tmax determined in pharmacokinetic studies. Animals were then placed under general anesthesia with a 5% isoflourane and oxygen mixture and shaved. Using a 0.5 cc insulin syringe two sites were injected i.d., 1 site with 100 μL of 4.0 mg/mL of anti-OVA antibody, and 1 site with 100 μL of sterile PBS. Each injection site was circled with a permanent marker to mark the site. Immediately following i.d. injections, animals were injected with 200 μL of the OVA (10 mg/kg)/1% Evans Blue mixture, i.v., using a 0.5 cc insulin syringe. About 4 h post injection animals were euthanized, bled via cardiac puncture and blood was put into plasma separation tubes. Blood samples were stored on ice until centrifugation (within about 2 h of collection). Each injection site was removed with a disposable biopsy punch (Acuderm Acu-Punch Disposable 12 mm), cut into four pieces and placed in a pre-labeled 2 mL eppendorf tube. One mL of DMF (99%) was added to each biopsy tube and they were placed in a heat block at about 50° C. for about 24 h. After incubation, 100 μL of each sample was transferred to a 96 well flat bottom plate and read at 620 nm on a plate reader using the Softmax software. Background was removed by subtracting the OD from the PBS injected site from the OD of the anti-OVA injected site for each individual animal. Plasma samples were spun down in a microcentrifuge (Eppendorf 5415R) for about 5 min at 16.1 rcf. 200 μL of plasma was placed in a 1.7 mL eppendorf tube for drug level measurements and tubes were stored at about −80° C. until evaluation.

Compound | inhibition in vivo at 10 mg/kg [%]
Clc1cc(Nc2nc(N3CCC4(CCNC4)CC3)c3occc3n2)ccc1N1CCOCC1 [C.1.44] | 54
CC1(C)Oc2ccc(Nc3nc(N4CCC(O)(CN)CC4)c4occc4n3)cc2NC1=O [Example #AM.1.1] | 12
O=c1[nH]c2cc(Nc3nc(NC4CC4)c4occc4n3)ccc2cc1CO [B.5.50] | 0
CC1(C)C(=O)Nc2cc(Nc3nc(NC4CC4)c4occc4n3)ccc21 [Example #11, 6-(4-(Cyclopropylamino)furo[3,2-d]pyrimidin-2-ylamino)-3,3-dimethylindolin-2-one] | 65
CC(N)C1CCN(c2nc(Nc3ccc4c(c3)NC(=O)C(C)(C)O4)nc3ccoc23)CC1 (stereo not shown) [C.1.62] | -6
CC1(C)C(=O)Nc2cc(Nc3nc(N4CCC(CNCC(F)F)CC4)c4occc4n3)ccc21 [B.5.60] | 10
CC1(CN)CCN(c2nc(Nc3ccc4c(c3)NC(=O)C4(C)C)nc3ccoc23)CC1 [C.1.32] | 8
CNCC1CCN(c2nc(Nc3ccc(N4CCN(C(C)=O)CC4)cc3)nc3ccoc23)CC1 [C.1.2] | -17
CC1(C)Oc2ccc(Nc3nc(Nc4ccc5c(c4)NC(=O)C(C)(C)O5)c4occc4n3)cc2NC1=O [B.5.62] | 16
CNCC1CCN(c2nc(Nc3ccc4c(C)n[nH]c4c3)nc3ccoc23)CC1 [C.1.48] | 1
Cn1ncc2cc(Nc3nc(N4CCC5(CCCNC5)CC4)c4occc4n3)ccc21 [C.1.43] | 56
Cn1ncc2cc(Nc3nc(N4CCC5(CCNC5)CC4)c4occc4n3)ccc21 [C.1.40] | 40
CCCC(=O)Nc1ccc(Nc2nc(N3CCC(CN)CC3)c3occc3n2)cc1 [C.1.8] | 0
c1cc2nc(Nc3ccc4cn[nH]c4c3)nc(NC3CC3)c2o1 [Example #15, N^4-Cyclopropyl-N^2-(1H-indazol-6-yl)furo[3,2-d]pyrimidine-2,4-diamine] | 45
Cc1n[nH]c2cc(Nc3nc(N4CCC(O)(CN)CC4)c4occc4n3)ccc12 [Example #AM.1, 4-(Aminomethyl)-1-(2-(3-methyl-1H-indazol-6-ylamino)furo[3,2-d]pyrimidin-yl)piperidin-4-ol] | 3
FC(F)(F)CNc1nc(Nc2ccc(N3CCOCC3)c(Cl)c2)nc2ccoc12 [B.5.13] | 17
